Here are results for 13 compounds from ChEMBL document CHEMBL1201862, “PubChem BioAssay data set” (2004).

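Compound exposure: 48 hours, 5 concentrations, 96-well plates. GI50 marks 50% less growth.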 Calls of active or inactive are those of the source. No stated cut-off is given here; in the data, active = GI50 up to about 1.1 µM and inactive = higher.

Some test systems named below: KM-20L2; SNB-19; OVCAR-4; HL-60; DLD-1; HOP-18; XF498; SNB-78; HCC 2998; A549; LOX IMVI; DMS-114; SK-MEL-28; U-251; K562; DMS-273; NCI/ADR-RES.
Common to all, as to assay: inhibition of tumour cell growth, NCI panel, 48 h

Regarding `Cc1c(OC(C)C(=O)O)ccc2c(-c3ccccc3)cc(=O)oc12` (stereo not given), the GI50 with KM-20L2, in the test on SNB-19, with OVCAR-4, in the test with HL-60, in the test on DLD-1 and in the test with HOP-18 was > 100 µM (inactive) throughout. Further, the GI50 with XF498, in the test with SNB-78, in the test with HCC 2998, in the test with A549, in the test with LOX IMVI and in the test on DMS-114 was > 100 µM (inactive) in each case. Besides, the GI50 in the test with SK-MEL-28, in the test with U-251 and in the test on K562 was > 100 µM (inactive) in each case.

As for `O=C(Nc1ccc(Cl)c(Cl)c1)C(=O)C(C(=O)c1ccccc1F)C1OC(=O)c2ccccc21` (stereo not given), the GI50 with KM-20L2 is 23.6 µM (inactive); in the test on SNB-19 it was 17.5 µM (inactive); in the test on OVCAR-4, 22.3 µM (inactive); in the test on HL-60 it was 14.1 µM (inactive); in the test with DLD-1, 26.4 µM (inactive); with XF498 it was 31.8 µM (inactive). The GI50 with SNB-78 was 11.2 µM (inactive); in the test on HCC 2998 it was 17.9 µM (inactive); in the test on DMS-273 it was 13.2 µM (inactive); in the test on A549 it was 27.8 µM (inactive); in the test on LOX IMVI, 18.4 µM (inactive); in the test on DMS-114, 18.7 µM (inactive). Besides, the results for the GI50 with SK-MEL-28, in the test on U-251 and with K562 were 25.3 µM (inactive), 12.7 µM (inactive) and 22 µM (inactive), respectively.

Turning to `NC(=O)OCC(COc1ccc(Cl)cc1)OC(=O)c1cc([N+](=O)[O-])cc([N+](=O)[O-])c1` (stereo not given), the GI50 in the test with KM-20L2 is > 100 µM (inactive); in the test on SNB-19, > 100 µM (inactive); with HL-60, > 100 µM (inactive); in the test with DLD-1 it was 55.2 µM (inactive); in the test with HOP-18 it was > 100 µM (inactive); in the test with XF498 it was 58.2 µM (inactive). The GI50 is > 100 µM (inactive) in the test with SNB-78; > 100 µM (inactive) in the test on HCC 2998; > 100 µM (inactive) in the test on DMS-273; > 100 µM (inactive) with A549; 17.9 µM (inactive) with LOX IMVI; 35.1 µM (inactive) in the test on DMS-114. Also, the GI50 was > 100 µM (inactive) in the test with SK-MEL-28, > 100 µM (inactive) with U-251 and 37.2 µM (inactive) with K562.

Regarding `COc1ccc2c(c1)OC(c1ccccc1O)CC2=O` (stereo not given), the GI50 is > 100 µM (inactive) in the test with KM-20L2; > 100 µM (inactive) in the test on SNB-19; 47.3 µM (inactive) in the test with OVCAR-4; 29 µM (inactive) in the test with DLD-1; 5.64 µM (inactive) in the test with HOP-18; 40.7 µM (inactive) in the test on XF498. Further, the GI50 with SNB-78 was 26.5 µM (inactive); with HCC 2998, 48.9 µM (inactive); in the test on A549 it was 40.6 µM (inactive); with SK-MEL-28, 48.2 µM (inactive); in the test on U-251, 44.5 µM (inactive); in the test with K562, 28.3 µM (inactive).

With `O=C(NC(Cc1ccc(Cl)cc1)C(=O)O)c1ccc(I)cc1` (stereo not given), the GI50 with SNB-19, with OVCAR-4, in the test with HL-60, in the test on NCI/ADR-RES, in the test with DLD-1 and in the test with HOP-18 was > 100 µM (inactive) each time. Moreover, the GI50 in the test on XF498 is > 64.4 µM (inactive); with SNB-78 it was > 100 µM (inactive); in the test with HCC 2998 it was 3.42 µM (inactive); in the test on DMS-273, > 100 µM (inactive); with A549, > 100 µM (inactive); with LOX IMVI, > 100 µM (inactive). The GI50 with SK-MEL-28, in the test with U-251 and in the test on K562 was > 100 µM (inactive) throughout.

In the case of `CCOC(=O)C1(C#N)C(c2ccccc2)CC(O)(c2ccc(OC)cc2)C(C(=O)c2ccc(OC)cc2)C1c1ccccc1` (stereo not given), the GI50 was > 100 µM (inactive) in the test with KM-20L2; 32.4 µM (inactive) with SNB-19; > 100 µM (inactive) with OVCAR-4; > 100 µM (inactive) in the test on HL-60; > 100 µM (inactive) with DLD-1; 15.6 µM (inactive) with HOP-18. For the same compound, the GI50 with SNB-78, in the test with HCC 2998, with DMS-273, in the test on A549, in the test with LOX IMVI and in the test with DMS-114 was > 100 µM (inactive) in each case. The GI50 in the test on SK-MEL-28, in the test on U-251 and with K562 was > 100 µM (inactive) each time.

As to `CC1CC(c2ccccc2)=Nc2ccccc2S1` (stereo not given), the GI50 in the test with KM-20L2 was > 100 µM (inactive); in the test with SNB-19 it was > 100 µM (inactive); in the test on OVCAR-4, > 100 µM (inactive); with HL-60 it was 58.9 µM (inactive); in the test on DLD-1, > 100 µM (inactive); with XF498, > 100 µM (inactive). The GI50 is > 100 µM (inactive) with SNB-78; > 100 µM (inactive) in the test on HCC 2998; > 100 µM (inactive) in the test with DMS-273; > 100 µM (inactive) in the test on A549; 84.7 µM (inactive) with LOX IMVI; > 100 µM (inactive) with DMS-114. Also, the GI50 in the test with SK-MEL-28 was > 100 µM (inactive); in the test with U-251 it was 44.1 µM (inactive); in the test on K562 it was 79.4 µM (inactive).

`C=CCNC(=O)N(CCC)CCCC(NC(C)=O)C(=O)NCc1ccccc1` (stereo not given): the GI50 is > 100 µM (inactive) in the test on KM-20L2; > 100 µM (inactive) in the test on SNB-19; > 100 µM (inactive) in the test on OVCAR-4; > 100 µM (inactive) in the test with HL-60; 16.3 µM (inactive) in the test with HOP-18; > 100 µM (inactive) in the test with XF498. Also, the GI50 in the test on DMS-273, with A549, with LOX IMVI, with DMS-114, with SK-MEL-28 and with U-251 was > 100 µM (inactive) in each case. In the test on K562, the GI50 is > 100 µM (inactive).

Regarding `CCOC(=O)Cc1cc(OC)c(OC)cc1/C(Cl)=C(\CO)c1ccc(OC)c(OC)c1`, the GI50 in the test on KM-20L2 was > 100 µM (inactive); in the test on SNB-19, 50.2 µM (inactive); in the test with OVCAR-4, 44.4 µM (inactive); in the test on HL-60, > 100 µM (inactive); in the test with DLD-1, > 100 µM (inactive); with HOP-18 it was > 100 µM (inactive). Also, the GI50 is 16.9 µM (inactive) with XF498; 59 µM (inactive) in the test with SNB-78; > 100 µM (inactive) in the test on DMS-273; > 100 µM (inactive) in the test on A549; 87.9 µM (inactive) in the test on LOX IMVI; 66.5 µM (inactive) with DMS-114. Moreover, the GI50 was 78 µM (inactive) with SK-MEL-28, 64 µM (inactive) with U-251 and > 100 µM (inactive) in the test with K562.

Regarding `C=C(C)C1Cc2c(cc(O)c3c(=O)c4ccccc4n(C)c23)O1` (stereo not given), the GI50 in the test with KM-20L2 is > 100 µM (inactive); with SNB-19, 13.9 µM (inactive); in the test with OVCAR-4, 9.93 µM (inactive); in the test on HL-60, 39 µM (inactive); in the test with DLD-1, 27.1 µM (inactive); in the test with HOP-18, 16 µM (inactive). For the same compound, the GI50 with XF498 was 23.8 µM (inactive); in the test on SNB-78, 35.6 µM (inactive); in the test on HCC 2998, > 100 µM (inactive); with DMS-273 it was 31.3 µM (inactive); in the test with A549, 49.8 µM (inactive); in the test with LOX IMVI, 10.7 µM (inactive). Moreover, the GI50 with DMS-114 was > 100 µM (inactive); with SK-MEL-28, > 100 µM (inactive); with U-251, 56 µM (inactive).

Take `COc1cc(C2c3cc4c(cc3[C@@H](Nc3cccc(CO)c3)C3COC(=O)[C@H]23)OCO4)cc(OC)c1O` (stereo not given in full): the GI50 in the test on KM-20L2 was 0.766 µM (active); in the test with SNB-19 it was 0.453 µM (active); in the test with OVCAR-4, 6.84 µM (inactive); with HL-60, < 0.0218 µM (active); in the test with NCI/ADR-RES, 1.34 µM (inactive); with DLD-1 it was 1.43 µM (inactive). The GI50 in the test on HOP-18 was 1.1 µM (active); with XF498 it was 0.154 µM (active); in the test on HCC 2998, 1.73 µM (inactive); with DMS-273, 0.153 µM (active); in the test on A549, < 0.0281 µM (active); with LOX IMVI, 0.438 µM (active). Besides, the GI50 in the test on DMS-114 is 0.427 µM (active); with SK-MEL-28 it was 2.24 µM (inactive); in the test with U-251, 0.516 µM (active); with K562 it was 0.178 µM (active).

As to `Nc1ncnc2c1ncn2C1C(O)C=C(CO)C1O` (stereo not given), the GI50 in the test with KM-20L2 was > 625 µM (inactive); in the test on SNB-19, > 625 µM (inactive); in the test on OVCAR-4 it was > 625 µM (inactive); in the test with HL-60, 467 µM (inactive); in the test on NCI/ADR-RES, > 625 µM (inactive); in the test with DLD-1, > 625 µM (inactive). In addition, the GI50 with HOP-18 is > 625 µM (inactive); with XF498 it was < 0.0625 µM (active); in the test on SNB-78, > 625 µM (inactive); with HCC 2998 it was > 625 µM (inactive); in the test on DMS-273 it was > 625 µM (inactive); in the test with A549, > 625 µM (inactive). Moreover, the GI50 in the test with LOX IMVI and in the test with DMS-114 was > 625 µM (inactive) throughout.

As to `S=C=NCCc1ccccc1` [PHENETHYLISOTHIOCYANATE], the GI50 with KM-20L2 was 0.729 µM (active); with SNB-19 it was 1.73 µM (inactive); with OVCAR-4 it was 2.14 µM (inactive); in the test on HL-60, 0.385 µM (active); in the test with DLD-1, 0.0596 µM (active); in the test on XF498 it was 2.39 µM (inactive). Besides, the GI50 in the test with SNB-78 was 0.818 µM (active); in the test on HCC 2998 it was 0.412 µM (active); in the test on DMS-273, 0.255 µM (active); in the test on A549 it was 2.39 µM (inactive); with LOX IMVI, 0.194 µM (active); with DMS-114, 0.382 µM (active). The figures for the GI50 with SK-MEL-28, in the test on U-251 and in the test with K562 were 0.71 µM (active), 0.794 µM (active) and 0.226 µM (active), respectively.
